Results reported in US20060079550A1, “Amino acid derivatives useful for the treatment of alzheimer's disease” (priority 2001, published 2006).
Read-outs that look alike come from different tables or passages of the source.

Target: aspartyl proteases, in particular, beta-secretase
Assay: Ki of the compounds listed in Tables 1 and 2 (no method described)
Assay type: biochemical
[1] = Table 1, compounds of formula Ia, W is -(CH2)n-

Structure (SMILES)	Ki [1]	Ki
CC(C)CN(C(CCCCNC(=O)OCC1c2ccccc2-c2ccccc21)C(=O)O)S(=O)(=O)c1ccc(Cl)cc1 (racemic) [Compound No. 1, Nα-isobutyl-Nα-(4-chlorobenzenesulfonyl)-Nε-(9-fluorenylmethoxycarbonyl)-DL-lysine]	20.5 nM	
CC(C)CN(C(CCCCNC(=O)OCC1c2ccccc2-c2ccccc21)C(=O)O)S(=O)(=O)c1ccc(F)cc1 (racemic) [Compound No. 3, Nα-isobutyl-Nα-(4-fluorobenzenesulfonyl)-Nε-(9-fluorenylmethoxycarbonyl)-DL-lysine]	17.4 nM	
Cc1ccc(S(=O)(=O)N(CC(C)C)C(CCCCNC(=S)CCc2ccccc2)C(=O)O)cc1 (racemic) [Compound No. 153, Nα-isobutyl-Nα-(4-methylbenzenesulfonyl)-Nε-dihydrothiocinnamoyi-DL-lysine]	151 nM	
CC(C)CN([C@@H](CCCCNC(=O)OCC1c2ccccc2-c2ccccc21)C(=O)O)S(=O)(=O)c1ccc(Br)cc1 [Compound No. 4, Nα-isobutyl-Nα-(4-bromobenzenesulfonyl)-Nε-(9-fluorenylmethoxycarbonyl)-L-lysine]	11.4 nM	
COc1ccc(S(=O)(=O)N(CC(C)C)[C@@H](CCCCNC(=O)OCC2c3ccccc3-c3ccccc32)C(=O)O)cc1 [Compound No. 7]	10.6 nM	
CC(C)CN([C@@H](CCCCNC(=O)OCC1c2ccccc2-c2ccccc21)C(=O)O)S(=O)(=O)c1cccc2ccccc12 [Compound No. 8, Nα-isobutyl-Nα-(1-naphthalenesulfonyl)-Nε-(9-fluorenylmethoxycarbonyl)-L-lysine]	54.9 nM	
CC(C)CN([C@@H](CCCCNC(=O)OCC1c2ccccc2-c2ccccc21)C(=O)O)S(=O)(=O)c1ccc(C(C)(C)C)cc1 [Compound No. 10, Nα-isobutyl-Nα-(4-tert-butylbenzenesulfonyl)-Nε-(9-fluorenylmethoxycarbonyl)-L-lysine]		257 nM

Second part, led by results:

Ki [1]	Structure (SMILES)	Ki
5 nM	Cc1ccc(S(=O)(=O)N(CC(C)C)C(CCCCNC(=O)OCC2c3ccccc3-c3ccccc32)C(=O)O)cc1 (racemic) [Compound No. 2, Nα-isobutyl-Nα-(4-methylbenzenesulfonyl)-Nε-(9-fluorenylmethoxycarbonyl)-DL-lysine]	
180 nM	Cc1ccc(S(=O)(=O)N(CC(C)C)C(CCCNC(=O)OCC2c3ccccc3-c3ccccc32)C(=O)O)cc1 (racemic) [Compound No. 6, Nα-isobutyl-Nα-(4-methylbenzenesulfonyl)-Nδ-(9-fluorenylmethoxycarbonyl)-DL-ornithine]	
> 100 nM	CC(C)CN(C(CCCCNC(=O)OCc1ccccc1)C(=O)O)S(=O)(=O)c1ccc(I)cc1 (racemic) [Compound No. 48, Nα-isobutyl-Nα-(4-iodobenzenesulfonyl)-Nε-benzyloxycarbonyl-DL-lysine]	
> 300 nM	Cc1ccc(S(=O)(=O)N(CC(C)C)C(CCCCN(CC(C)C)C(=O)CCc2ccccc2)C(=O)O)cc1 (racemic) [Compound No. 159, Nα,Nε-diisobutyl-Nα-(4-methylbenzenesulfonyl)-Nε-(3-phenylpropanoyl)-DL-lysine]	
49000 nM	O=C(N[C@@H](CCNS(=O)(=O)c1ccc(Br)cc1)C(=O)O)OCC1c2ccccc2-c2ccccc21 [Compound No. 14, (S)-2-(9-fluorenylmethoxycarbonylamino)-4-(4-bromobenzenesulfonylamino)-butanoic Acid]	
47000 nM	COC(=O)[C@H](CCCCNS(=O)(=O)c1ccc(Br)cc1)NC(=O)OCC1c2ccccc2-c2ccccc21 [Compound No. 15, Nα-(9-fluorenylmethoxycarbonyl)-Nε-(4-bromobenzenesulfonyl)-L-lysine Methyl Ester]	
13000 nM	O=C(N[C@@H](CCCCNS(=O)(=O)c1ccc(Br)cc1)C(=O)O)OCC1c2ccccc2-c2ccccc21 [Compound No. 16, Nε-(4-bromobenzenesulfonyl)-Nα-(9-fluorenylmethoxycarbonyl)-L-lysine]	
7700 nM	O=C(O)[C@H](CCCCNS(=O)(=O)c1ccc(Br)cc1)NS(=O)(=O)c1ccc(Br)cc1 [Compound No. 17, Nα,Nε-di-(4-bromobenzenesulfonyl)-L-lysine]	
